How the values were obtained:
Experiment in all cases: cells
SCH = format: functional, cell-based, Homo sapiens; settings: Homo sapiens, SCH;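 further: growth inhibition of human SCH cells, read out in a cell viability assay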
Description: SANGER: Inhibition of human SCH cell growth in a cell viability assay.

SK-MEL-1 = format: functional, cell-based; settings: Homo sapiens;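 further: growth inhibition of human SK-MEL-1 cells, read out by a cell viability assay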
Description: SANGER: Inhibition of human SK-MEL-1 cell growth in a cell viability assay.

JVM-3 = format: functional, cell-based; settings: Homo sapiens;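 further: growth inhibition of human JVM-3 cells, read out with a cell viability assay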
Description: SANGER: Inhibition of human JVM-3 cell growth in a cell viability assay.

HC-1 = format: functional, cell-based; settings: Homo sapiens;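 further: growth inhibition of HC-1 cells measured by a cell viability assay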
Description: SANGER: Inhibition of human HC-1 cell growth in a cell viability assay.

OAW-42 = format: functional, cell-based, Homo sapiens; settings: Homo sapiens, OAW-42;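 further: growth inhibition of OAW-42 cells, read out with a cell viability assay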
Description: SANGER: Inhibition of human OAW-42 cell growth in a cell viability assay.

CAL-62 = format: functional, cell-based, Homo sapiens; settings: Homo sapiens, CAL-62;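 further: growth inhibition of CAL-62 cells, read out with a cell viability assay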
Description: SANGER: Inhibition of human CAL-62 cell growth in a cell viability assay.

J82 = format: functional, cell-based; settings: Homo sapiens;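 further: growth inhibition of J82 cells, read out with a cell viability assay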
Description: SANGER: Inhibition of human J82 cell growth in a cell viability assay.

LOX IMVI = format: functional, cell-based; settings: Homo sapiens
Description: SANGER: Inhibition of human LOXIMVI cell growth in a cell viability assay.

NCI-H2087 = format: functional, cell-based, Homo sapiens; settings: Homo sapiens, NCI-H2087;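 further: growth inhibition determined with a cell viability readout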
Description: SANGER: Inhibition of human NCI-H2087 cell growth in a cell viability assay.

MFM-223 = format: functional, cell-based, Homo sapiens; settings: Homo sapiens, MFM-223
Description: SANGER: Inhibition of human MFM-223 cell growth in a cell viability assay.

ML-2 = format: functional, cell-based; settings: Homo sapiens;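 further: growth inhibition of ML-2 cells, measured with a cell viability readout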
Description: SANGER: Inhibition of human ML-2 cell growth in a cell viability assay.

ChaGo-K-1 = format: functional, cell-based; settings: Homo sapiens;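 further: growth inhibition of ChaGo-K-1 cells, read out with a cell viability assay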
Description: SANGER: Inhibition of human ChaGo-K-1 cell growth in a cell viability assay.

A2780 = format: functional, cell-based, Homo sapiens; settings: Homo sapiens, A2780;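 further: growth inhibition of A2780 cells, read out with a cell viability assay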
Description: SANGER: Inhibition of human A2780 cell growth in a cell viability assay.

GAK = format: functional, cell-based, Homo sapiens; settings: Homo sapiens, GAK;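 further: cell growth inhibition read out by a cell viability assay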
Description: SANGER: Inhibition of human GAK cell growth in a cell viability assay.

DBTRG-05MG = format: functional, cell-based, Homo sapiens; settings: Homo sapiens, DBTRG-05MG;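 further: cell viability assay measuring growth inhibition of human DBTRG-05MG cells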
Description: SANGER: Inhibition of human DBTRG-05MG cell growth in a cell viability assay.

NCI-H1648 = format: functional, cell-based, Homo sapiens; settings: Homo sapiens, NCI-H1648;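 further: cell viability assay measuring inhibition of NCI-H1648 cell growth, from the Sanger screening data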
Description: SANGER: Inhibition of human NCI-H1648 cell growth in a cell viability assay.

NCI-H526 = format: functional, cell-based; settings: Homo sapiens;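 further: growth inhibition of the human NCI-H526 cell line, measured by a cell viability assay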
Description: SANGER: Inhibition of human NCI-H526 cell growth in a cell viability assay.

GB-1 = format: functional, cell-based, Homo sapiens; settings: Homo sapiens, GB-1;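 further: growth of GB-1 cells judged by a viability assay, IC50 marks the concentration inhibiting growth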
Description: SANGER: Inhibition of human GB-1 cell growth in a cell viability assay.

MDA-MB-453 = format: functional, cell-based, Homo sapiens; settings: Homo sapiens, MDA-MB-453
Description: SANGER: Inhibition of human MDA-MB-453 cell growth in a cell viability assay.

HOS = format: functional, cell-based, Homo sapiens; settings: Homo sapiens, HOS;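 further: growth inhibition of human HOS cells, read out with a cell viability assay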
Description: SANGER: Inhibition of human HOS cell growth in a cell viability assay.

KM-H2 = format: functional, cell-based; settings: Homo sapiens;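 further: growth inhibition of KM-H2 cells, read out by a cell viability assay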
Description: SANGER: Inhibition of human KM-H2 cell growth in a cell viability assay.

DJM-1 = format: functional, cell-based, Homo sapiens; settings: Homo sapiens, DJM-1;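 further: growth inhibition of human DJM-1 cells, read out by a cell viability assay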
Description: SANGER: Inhibition of human DJM-1 cell growth in a cell viability assay.

GCT = format: functional, cell-based, Homo sapiens; settings: Homo sapiens, GCT;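 further: GCT cell line proliferation inhibition, read out with a cell viability assay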
Description: SANGER: Inhibition of human GCT cell growth in a cell viability assay.

NCI-H1155 = format: functional, cell-based; settings: Homo sapiens;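 further: cell growth inhibition measured by a viability assay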
Description: SANGER: Inhibition of human NCI-H1155 cell growth in a cell viability assay.

L-363 = format: functional, cell-based; settings: Homo sapiens
Description: SANGER: Inhibition of human L-363 cell growth in a cell viability assay.

HCE-4 = format: functional, cell-based, Homo sapiens; settings: Homo sapiens, HCE-4;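 further: cell viability assay measuring inhibition of growth in the human HCE-4 cell line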
Description: SANGER: Inhibition of human HCE-4 cell growth in a cell viability assay.

ACN = format: functional, cell-based, Homo sapiens; settings: Homo sapiens, ACN;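 further: growth inhibition of the human ACN cell line, read out via cell viability testing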
Description: SANGER: Inhibition of human ACN cell growth in a cell viability assay.

LCLC-97TM1 = format: functional, cell-based, Homo sapiens; settings: Homo sapiens, LCLC-97TM1;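 further: cell viability assay measuring growth inhibition of human LCLC-97TM1 cells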
Description: SANGER: Inhibition of human LCLC-97TM1 cell growth in a cell viability assay.

Becker = format: functional, cell-based, Homo sapiens; settings: Homo sapiens, Becker;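 further: growth inhibition of Becker cells, read out with a cell viability assay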
Description: SANGER: Inhibition of human Becker cell growth in a cell viability assay.

SW1417 = format: functional, cell-based, Homo sapiens; settings: Homo sapiens, SW1417;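 further: growth inhibition of human SW1417 cells, read out with a cell viability assay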
Description: SANGER: Inhibition of human SW1417 cell growth in a cell viability assay.

YAPC = format: functional, cell-based, Homo sapiens; settings: Homo sapiens, YAPC;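 further: growth inhibition of YAPC cells, measured with a cell viability assay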
Description: SANGER: Inhibition of human YAPC cell growth in a cell viability assay.

DK-MG = format: functional, cell-based, Homo sapiens; settings: Homo sapiens, DK-MG;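 further: growth inhibition of DK-MG cells, read out with a cell viability assay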
Description: SANGER: Inhibition of human DK-MG cell growth in a cell viability assay.

LB2241-RCC = format: functional, cell-based, Homo sapiens; settings: Homo sapiens, LB2241-RCC;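 further: cell viability assay measuring how strongly the cultured human renal carcinoma line is prevented from growing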
Description: SANGER: Inhibition of human LB2241-RCC cell growth in a cell viability assay.

KARPAS-299 = format: functional, cell-based; settings: Homo sapiens
Description: SANGER: Inhibition of human KARPAS-299 cell growth in a cell viability assay.

KGN = format: functional, cell-based, Homo sapiens; settings: Homo sapiens, KGN;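 further: growth inhibition of KGN cells, read out with a cell viability assay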
Description: SANGER: Inhibition of human KGN cell growth in a cell viability assay.

NCI-H209 = format: functional, cell-based; settings: Homo sapiens;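 further: growth inhibition of human NCI-H209 cells, measured by a cell viability assay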
Description: SANGER: Inhibition of human NCI-H209 cell growth in a cell viability assay.

TE-10 = format: functional, cell-based, Homo sapiens; settings: Homo sapiens, TE-10;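 further: growth inhibition of TE-10 cells, measured by a cell viability assay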
Description: SANGER: Inhibition of human TE-10 cell growth in a cell viability assay.

KMOE-2 = format: functional, cell-based; settings: Homo sapiens;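 further: growth inhibition of human KMOE-2 cells, read out with a cell viability assay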
Description: SANGER: Inhibition of human KMOE-2 cell growth in a cell viability assay.

RS4-11 = format: functional, cell-based; settings: Homo sapiens;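 further: growth inhibition of RS4-11 cells, read out by a cell viability assay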
Description: SANGER: Inhibition of human RS4-11 cell growth in a cell viability assay.

GAMG = format: functional, cell-based, Homo sapiens; settings: Homo sapiens, GAMG;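 further: cell growth inhibition measured by a viability assay in the GAMG human cell line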
Description: SANGER: Inhibition of human GAMG cell growth in a cell viability assay.

NB12 = format: functional, cell-based, Homo sapiens; settings: Homo sapiens, NB12;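 further: growth inhibition of human NB12 cells, read out by a cell viability assay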
Description: SANGER: Inhibition of human NB12 cell growth in a cell viability assay.

MMAC-SF = format: functional, cell-based, Homo sapiens; settings: Homo sapiens, MMAC-SF;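 further: growth inhibition of human MMAC-SF cells, read out with a cell viability assay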
Description: SANGER: Inhibition of human MMAC-SF cell growth in a cell viability assay.

LB373-MEL-D = format: functional, cell-based, Homo sapiens; settings: Homo sapiens, LB373-MEL-D;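 further: growth inhibition of the cell line, read out in a cell viability assay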
Description: SANGER: Inhibition of human LB373-MEL-D cell growth in a cell viability assay.

A-431 = format: functional, cell-based, Homo sapiens; settings: Homo sapiens, A-431;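 further: growth inhibition of A-431 cells, determined with a cell viability read-out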
Description: SANGER: Inhibition of human A431 cell growth in a cell viability assay.

D-247MG = format: functional, cell-based, Homo sapiens; settings: Homo sapiens, D-247MG
Description: SANGER: Inhibition of human D-247MG cell growth in a cell viability assay.

NCI-H1770 = format: functional, cell-based; settings: Homo sapiens;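 further: growth inhibition of NCI-H1770 cells determined with a viability readout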
Description: SANGER: Inhibition of human NCI-H1770 cell growth in a cell viability assay.

SF-295 = format: functional, cell-based, Homo sapiens; settings: Homo sapiens, SF-295; read-out: IC50;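 further: growth inhibition of SF-295 cells, read out with a cell viability assay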
Description: SANGER: Inhibition of human SF295 cell growth in a cell viability assay.

SH-4 = format: functional, cell-based, Homo sapiens; settings: Homo sapiens, SH-4;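 further: growth inhibition of SH-4 cells, read out with a cell viability assay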
Description: SANGER: Inhibition of human SH-4 cell growth in a cell viability assay.

MV4-11 = format: functional, cell-based, MV-4-11; settings: Homo sapiens;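 further: cell viability readout measuring growth inhibition of human MV-4-11 cells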
Description: SANGER: Inhibition of human MV-4-11 cell growth in a cell viability assay.

CAL-72 = format: functional, cell-based, Homo sapiens; settings: Homo sapiens, CAL-72;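 further: cell viability assay measuring inhibition of proliferation in the CAL-72 cell line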
Description: SANGER: Inhibition of human CAL-72 cell growth in a cell viability assay.

HuP-T4 = format: functional, cell-based, Homo sapiens; settings: Homo sapiens, HuP-T4;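 further: cell viability assay measuring how much HuP-T4 cell growth is inhibited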
Description: SANGER: Inhibition of human HuP-T4 cell growth in a cell viability assay.

P30-OHK = format: functional, cell-based; settings: Homo sapiens;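 further: growth inhibition of the P30-OHK cell line, read out with a cell viability assay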
Description: SANGER: Inhibition of human P30-OHK cell growth in a cell viability assay.

BV-173 = format: functional, cell-based; settings: Homo sapiens
Description: SANGER: Inhibition of human BV-173 cell growth in a cell viability assay.

KYSE-410 = format: functional, cell-based, Homo sapiens; settings: Homo sapiens, KYSE-410;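 further: growth inhibition of KYSE-410 cells, measured through a cell viability readout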
Description: SANGER: Inhibition of human KYSE-410 cell growth in a cell viability assay.

SMILES: Nc1ccn([C@@H]2O[C@H](CO)[C@@H](O)[C@@H]2O)c(=O)n1 [CYTARABINE]
- IC50 (SCH): > 2000 nM
- IC50 (SK-MEL-1): > 2000 nM
- IC50 (JVM-3): 1450 nM
- IC50 (HC-1): 1080 nM
- IC50 (OAW-42): 1250 nM
- IC50 (CAL-62): 710 nM
- IC50 (J82): 1620 nM
- IC50 (LOX IMVI): 290 nM
- IC50 (NCI-H2087): > 2000 nM
- IC50 (MFM-223): > 2000 nM
- IC50 (ML-2): 270 nM
- IC50 (ChaGo-K-1): > 2000 nM
- IC50 (A2780): 162 nM
- IC50 (GAK): > 2000 nM
- IC50 (DBTRG-05MG): > 2000 nM
- IC50 (NCI-H1648): > 2000 nM
- IC50 (NCI-H526): > 2000 nM
- IC50 (GB-1): > 2000 nM
- IC50 (MDA-MB-453): > 2000 nM
- IC50 (HOS): 518 nM
- IC50 (KM-H2): > 2000 nM
- IC50 (DJM-1): > 2000 nM
- IC50 (GCT): 856 nM
- IC50 (NCI-H1155): 397 nM
- IC50 (L-363): 1340 nM
- IC50 (HCE-4): 277 nM
- IC50 (ACN): > 2000 nM
- IC50 (LCLC-97TM1): 477 nM
- IC50 (Becker): 1100 nM
- IC50 (SW1417): > 2000 nM
- IC50 (YAPC): > 2000 nM
- IC50 (DK-MG): > 2000 nM
- IC50 (LB2241-RCC): 55.3 nM
- IC50 (KARPAS-299): > 2000 nM
- IC50 (KGN): > 2000 nM
- IC50 (NCI-H209): > 2000 nM
- IC50 (TE-10): > 2000 nM
- IC50 (KMOE-2): 944 nM
- IC50 (RS4-11): 381 nM
- IC50 (GAMG): 394 nM
- IC50 (NB12): > 2000 nM
- IC50 (MMAC-SF): > 2000 nM
- IC50 (LB373-MEL-D): > 2000 nM
- IC50 (A-431): > 2000 nM
- IC50 (D-247MG): 1090 nM
- IC50 (NCI-H1770): > 2000 nM
- IC50 (SF-295): > 2000 nM
- IC50 (SH-4): > 2000 nM
- IC50 (MV4-11): 1850 nM
- IC50 (CAL-72): > 2000 nM
- IC50 (HuP-T4): 237 nM
- IC50 (P30-OHK): 56.5 nM
- IC50 (BV-173): 516 nM
- IC50 (KYSE-410): > 2000 nM

SMILES: Cc1cnc(-c2cnc(NCCNc3ccc(C#N)cn3)nc2-c2ccc(Cl)cc2Cl)[nH]1 [LADUVIGLUSIB]
- IC50 (SCH): > 2560 nM
- IC50 (SK-MEL-1): > 2560 nM
- IC50 (JVM-3): > 2560 nM
- IC50 (HC-1): > 2560 nM
- IC50 (OAW-42): > 2560 nM
- IC50 (CAL-62): > 2560 nM
- IC50 (J82): > 2560 nM
- IC50 (LOX IMVI): 588 nM
- IC50 (NCI-H2087): > 2560 nM
- IC50 (MFM-223): > 2560 nM
- IC50 (ML-2): > 2560 nM
- IC50 (ChaGo-K-1): > 2560 nM
- IC50 (A2780): > 2560 nM
- IC50 (GAK): > 2560 nM
- IC50 (DBTRG-05MG): > 2560 nM
- IC50 (NCI-H1648): > 2560 nM
- IC50 (NCI-H526): > 2560 nM
- IC50 (GB-1): > 2560 nM
- IC50 (MDA-MB-453): > 2560 nM
- IC50 (HOS): > 2560 nM
- IC50 (KM-H2): > 2560 nM
- IC50 (DJM-1): > 2560 nM
- IC50 (GCT): 307 nM
- IC50 (NCI-H1155): > 2560 nM
- IC50 (L-363): > 2560 nM
- IC50 (HCE-4): > 2560 nM
- IC50 (ACN): > 2560 nM
- IC50 (LCLC-97TM1): > 2560 nM
- IC50 (Becker): > 2560 nM
- IC50 (SW1417): > 2560 nM
- IC50 (YAPC): > 2560 nM
- IC50 (DK-MG): > 2560 nM
- IC50 (LB2241-RCC): > 2560 nM
- IC50 (KARPAS-299): > 2560 nM
- IC50 (KGN): > 2560 nM
- IC50 (NCI-H209): > 2560 nM
- IC50 (TE-10): > 2560 nM
- IC50 (KMOE-2): > 2560 nM
- IC50 (RS4-11): 1950 nM
- IC50 (GAMG): > 2560 nM
- IC50 (NB12): > 2560 nM
- IC50 (MMAC-SF): > 2560 nM
- IC50 (LB373-MEL-D): > 2560 nM
- IC50 (A-431): > 2560 nM
- IC50 (D-247MG): 949 nM
- IC50 (NCI-H1770): > 2560 nM
- IC50 (SF-295): > 2560 nM
- IC50 (SH-4): > 2560 nM
- IC50 (MV4-11): > 2560 nM
- IC50 (CAL-72): > 2560 nM
- IC50 (HuP-T4): > 2560 nM
- IC50 (P30-OHK): > 2560 nM
- IC50 (BV-173): > 2560 nM
- IC50 (KYSE-410): > 2560 nM

SMILES: O=C(NOCC1CC1)c1ccc(F)c(F)c1Nc1ccc(I)cc1Cl [CI-1040]
- IC50 (SCH): > 10000 nM
- IC50 (SK-MEL-1): 1230 nM
- IC50 (JVM-3): > 10000 nM
- IC50 (HC-1): > 10000 nM
- IC50 (OAW-42): > 10000 nM
- IC50 (CAL-62): 4070 nM
- IC50 (J82): > 10000 nM
- IC50 (LOX IMVI): 1890 nM
- IC50 (NCI-H2087): 3850 nM
- IC50 (MFM-223): > 10000 nM
- IC50 (ML-2): 1530 nM
- IC50 (ChaGo-K-1): > 10000 nM
- IC50 (A2780): 498 nM
- IC50 (GAK): 3330 nM
- IC50 (DBTRG-05MG): 8750 nM
- IC50 (NCI-H1648): > 10000 nM
- IC50 (NCI-H526): > 10000 nM
- IC50 (GB-1): > 10000 nM
- IC50 (MDA-MB-453): > 10000 nM
- IC50 (HOS): 5630 nM
- IC50 (KM-H2): > 10000 nM
- IC50 (DJM-1): > 10000 nM
- IC50 (GCT): > 10000 nM
- IC50 (NCI-H1155): 5400 nM
- IC50 (L-363): 2740 nM
- IC50 (HCE-4): > 10000 nM
- IC50 (ACN): 267 nM
- IC50 (LCLC-97TM1): 1920 nM
- IC50 (Becker): > 10000 nM
- IC50 (SW1417): 9570 nM
- IC50 (YAPC): > 10000 nM
- IC50 (DK-MG): 9210 nM
- IC50 (LB2241-RCC): 2860 nM
- IC50 (KARPAS-299): > 10000 nM
- IC50 (KGN): 9840 nM
- IC50 (NCI-H209): > 10000 nM
- IC50 (TE-10): > 10000 nM
- IC50 (KMOE-2): 198 nM
- IC50 (RS4-11): 5670 nM
- IC50 (GAMG): 4020 nM
- IC50 (NB12): > 10000 nM
- IC50 (MMAC-SF): 110 nM
- IC50 (LB373-MEL-D): > 10000 nM
- IC50 (A-431): 6240 nM
- IC50 (D-247MG): > 10000 nM
- IC50 (NCI-H1770): > 10000 nM
- IC50 (SF-295): > 10000 nM
- IC50 (SH-4): 463 nM
- IC50 (MV4-11): 6230 nM
- IC50 (CAL-72): > 10000 nM
- IC50 (HuP-T4): 1180 nM
- IC50 (P30-OHK): 9650 nM
- IC50 (BV-173): 1440 nM
- IC50 (KYSE-410): > 10000 nM

— ChEMBL document CHEMBL1201861, “Genomics of Drug Sensitity in Cancer screening data, Wellcome Trust Sanger Institute”
